Common to all, as to assay: Dundee kinase panel
Holding throughout (assay type): biochemical
Holding throughout (conditions): for remaining activity at 1 µM: read-out: residual activity

The target in one test is T1, MARK4 (Homo sapiens, UniProt Q96L34).
T1 construct: lines 1-140) and Reaction Biology
T1 sequence (Q96L34 1-752): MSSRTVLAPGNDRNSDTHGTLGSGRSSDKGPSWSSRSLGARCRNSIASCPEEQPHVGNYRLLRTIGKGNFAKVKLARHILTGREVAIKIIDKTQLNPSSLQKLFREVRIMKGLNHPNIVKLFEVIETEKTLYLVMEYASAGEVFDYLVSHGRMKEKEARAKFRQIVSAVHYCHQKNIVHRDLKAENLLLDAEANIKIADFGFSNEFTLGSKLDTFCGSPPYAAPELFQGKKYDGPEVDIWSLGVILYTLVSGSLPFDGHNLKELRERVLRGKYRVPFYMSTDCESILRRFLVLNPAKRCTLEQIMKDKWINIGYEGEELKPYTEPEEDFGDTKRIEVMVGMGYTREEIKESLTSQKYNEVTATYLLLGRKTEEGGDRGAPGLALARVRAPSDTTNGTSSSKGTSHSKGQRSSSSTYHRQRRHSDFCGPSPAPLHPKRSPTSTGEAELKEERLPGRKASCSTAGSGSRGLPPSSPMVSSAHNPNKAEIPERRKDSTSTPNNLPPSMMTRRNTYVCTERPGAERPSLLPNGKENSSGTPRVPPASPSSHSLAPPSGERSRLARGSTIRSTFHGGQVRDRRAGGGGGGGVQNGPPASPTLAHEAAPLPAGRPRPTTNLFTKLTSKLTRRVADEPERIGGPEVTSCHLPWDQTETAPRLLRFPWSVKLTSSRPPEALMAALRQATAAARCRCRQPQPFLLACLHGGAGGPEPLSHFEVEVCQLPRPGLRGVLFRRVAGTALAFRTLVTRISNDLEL
On the procedure: (§1) Compounds were screened at 1 μM. For key hits, pIC50 values were then determined by HTRF as above. […] Stability in mouse and human liver microsomes was determined by Cyprotex.

The target of another test is T2, IGF-1R (Homo sapiens, UniProt P08069).
T2 construct: lines 1-140) and Reaction Biology
How it is done: as §1

The target in the next test is T3, BRSK2 (Homo sapiens, UniProt Q8IWQ3).
T3 construct: lines 1-140) and Reaction Biology
T3 sequence (Q8IWQ3 1-736): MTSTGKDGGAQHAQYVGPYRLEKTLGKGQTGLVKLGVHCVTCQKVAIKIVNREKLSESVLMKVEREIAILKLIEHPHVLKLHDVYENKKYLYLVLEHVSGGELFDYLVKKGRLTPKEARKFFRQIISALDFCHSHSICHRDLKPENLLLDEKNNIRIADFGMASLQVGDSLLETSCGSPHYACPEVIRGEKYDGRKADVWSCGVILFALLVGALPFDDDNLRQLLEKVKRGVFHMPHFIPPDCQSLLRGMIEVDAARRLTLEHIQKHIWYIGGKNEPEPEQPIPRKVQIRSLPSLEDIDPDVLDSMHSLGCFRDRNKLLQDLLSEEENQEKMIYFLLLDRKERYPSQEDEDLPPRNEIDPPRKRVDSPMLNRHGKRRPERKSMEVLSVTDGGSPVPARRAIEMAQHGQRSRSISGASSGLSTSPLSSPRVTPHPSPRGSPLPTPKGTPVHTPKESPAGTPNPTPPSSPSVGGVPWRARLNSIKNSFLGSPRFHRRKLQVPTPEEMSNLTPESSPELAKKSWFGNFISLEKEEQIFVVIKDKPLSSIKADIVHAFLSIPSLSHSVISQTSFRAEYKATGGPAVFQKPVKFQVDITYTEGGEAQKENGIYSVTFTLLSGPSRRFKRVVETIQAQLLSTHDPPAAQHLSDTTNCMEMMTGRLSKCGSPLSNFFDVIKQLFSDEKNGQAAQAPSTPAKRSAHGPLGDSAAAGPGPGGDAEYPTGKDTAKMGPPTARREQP
How it is done:
as §1

The target in another test is T4, HIPK1 (Homo sapiens, UniProt Q86Z02).
T4 construct: lines 1-140) and Reaction Biology
How it is done: as §1

In another test the target is T5, HIPK2 (Homo sapiens, UniProt Q9H2X6).
T5 construct: lines 1-140) and Reaction Biology
How it is done: as §1

In the next test the target is T6, ABL (Homo sapiens, UniProt P00519).
T6 construct: lines 1-140) and Reaction Biology
On the procedure:
as §1

A further test has as its target T7, PIM1 (Homo sapiens, UniProt P11309).
T7 construct: lines 1-140) and Reaction Biology
How it is done:
as §1

The target of the next test is T8, ZAP70 (Homo sapiens, UniProt P43403).
T8 construct: lines 1-140) and Reaction Biology
T8 sequence (P43403 1-619): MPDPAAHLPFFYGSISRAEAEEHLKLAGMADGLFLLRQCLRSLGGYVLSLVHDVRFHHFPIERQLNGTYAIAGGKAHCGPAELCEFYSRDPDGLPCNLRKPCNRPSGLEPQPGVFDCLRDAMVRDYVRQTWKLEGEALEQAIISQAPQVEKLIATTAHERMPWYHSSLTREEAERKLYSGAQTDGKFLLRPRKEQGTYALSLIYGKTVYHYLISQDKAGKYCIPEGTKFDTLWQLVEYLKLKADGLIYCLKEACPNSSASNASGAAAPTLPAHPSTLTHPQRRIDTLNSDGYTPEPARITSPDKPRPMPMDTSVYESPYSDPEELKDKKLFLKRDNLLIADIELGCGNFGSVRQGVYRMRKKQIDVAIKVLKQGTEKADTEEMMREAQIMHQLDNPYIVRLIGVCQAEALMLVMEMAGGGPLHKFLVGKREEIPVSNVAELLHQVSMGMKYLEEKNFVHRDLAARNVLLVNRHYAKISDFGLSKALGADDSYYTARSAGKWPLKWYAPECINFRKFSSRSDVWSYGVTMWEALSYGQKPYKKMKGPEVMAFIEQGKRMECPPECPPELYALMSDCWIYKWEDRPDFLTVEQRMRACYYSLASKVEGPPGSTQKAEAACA
How it is done: as §1

SMILES strings stand for the structures.

T4 sequence (Q86Z02 whole entry): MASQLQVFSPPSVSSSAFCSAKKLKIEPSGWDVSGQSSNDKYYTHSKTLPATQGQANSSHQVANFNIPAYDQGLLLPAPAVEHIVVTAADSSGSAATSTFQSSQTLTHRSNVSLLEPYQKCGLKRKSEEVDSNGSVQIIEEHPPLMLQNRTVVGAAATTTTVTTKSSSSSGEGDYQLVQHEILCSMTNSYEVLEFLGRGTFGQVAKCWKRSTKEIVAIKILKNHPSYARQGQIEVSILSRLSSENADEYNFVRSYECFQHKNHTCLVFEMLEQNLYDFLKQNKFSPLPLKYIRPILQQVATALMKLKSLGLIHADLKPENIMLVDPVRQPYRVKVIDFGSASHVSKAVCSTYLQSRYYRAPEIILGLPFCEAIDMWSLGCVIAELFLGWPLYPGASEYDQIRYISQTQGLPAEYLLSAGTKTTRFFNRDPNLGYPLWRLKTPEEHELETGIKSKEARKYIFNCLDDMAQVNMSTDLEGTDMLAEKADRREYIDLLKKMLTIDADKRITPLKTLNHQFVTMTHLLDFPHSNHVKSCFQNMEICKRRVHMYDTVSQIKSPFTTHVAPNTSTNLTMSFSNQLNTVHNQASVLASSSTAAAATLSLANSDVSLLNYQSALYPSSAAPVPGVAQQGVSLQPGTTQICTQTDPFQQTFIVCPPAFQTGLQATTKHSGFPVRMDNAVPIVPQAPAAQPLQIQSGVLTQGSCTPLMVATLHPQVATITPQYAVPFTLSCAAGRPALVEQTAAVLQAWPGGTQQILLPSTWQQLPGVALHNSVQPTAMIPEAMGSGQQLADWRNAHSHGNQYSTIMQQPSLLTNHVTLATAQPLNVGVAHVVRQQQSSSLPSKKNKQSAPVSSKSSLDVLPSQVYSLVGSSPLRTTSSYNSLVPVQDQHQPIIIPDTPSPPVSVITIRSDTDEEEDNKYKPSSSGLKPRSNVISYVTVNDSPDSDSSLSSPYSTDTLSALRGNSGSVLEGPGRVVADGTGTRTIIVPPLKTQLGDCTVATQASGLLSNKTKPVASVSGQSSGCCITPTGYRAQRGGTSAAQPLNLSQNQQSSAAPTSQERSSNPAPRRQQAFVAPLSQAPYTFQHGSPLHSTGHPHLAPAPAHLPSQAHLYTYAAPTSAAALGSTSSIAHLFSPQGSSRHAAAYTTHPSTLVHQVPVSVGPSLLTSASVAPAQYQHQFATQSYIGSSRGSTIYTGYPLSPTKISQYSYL
T5 sequence (Q9H2X6 whole entry): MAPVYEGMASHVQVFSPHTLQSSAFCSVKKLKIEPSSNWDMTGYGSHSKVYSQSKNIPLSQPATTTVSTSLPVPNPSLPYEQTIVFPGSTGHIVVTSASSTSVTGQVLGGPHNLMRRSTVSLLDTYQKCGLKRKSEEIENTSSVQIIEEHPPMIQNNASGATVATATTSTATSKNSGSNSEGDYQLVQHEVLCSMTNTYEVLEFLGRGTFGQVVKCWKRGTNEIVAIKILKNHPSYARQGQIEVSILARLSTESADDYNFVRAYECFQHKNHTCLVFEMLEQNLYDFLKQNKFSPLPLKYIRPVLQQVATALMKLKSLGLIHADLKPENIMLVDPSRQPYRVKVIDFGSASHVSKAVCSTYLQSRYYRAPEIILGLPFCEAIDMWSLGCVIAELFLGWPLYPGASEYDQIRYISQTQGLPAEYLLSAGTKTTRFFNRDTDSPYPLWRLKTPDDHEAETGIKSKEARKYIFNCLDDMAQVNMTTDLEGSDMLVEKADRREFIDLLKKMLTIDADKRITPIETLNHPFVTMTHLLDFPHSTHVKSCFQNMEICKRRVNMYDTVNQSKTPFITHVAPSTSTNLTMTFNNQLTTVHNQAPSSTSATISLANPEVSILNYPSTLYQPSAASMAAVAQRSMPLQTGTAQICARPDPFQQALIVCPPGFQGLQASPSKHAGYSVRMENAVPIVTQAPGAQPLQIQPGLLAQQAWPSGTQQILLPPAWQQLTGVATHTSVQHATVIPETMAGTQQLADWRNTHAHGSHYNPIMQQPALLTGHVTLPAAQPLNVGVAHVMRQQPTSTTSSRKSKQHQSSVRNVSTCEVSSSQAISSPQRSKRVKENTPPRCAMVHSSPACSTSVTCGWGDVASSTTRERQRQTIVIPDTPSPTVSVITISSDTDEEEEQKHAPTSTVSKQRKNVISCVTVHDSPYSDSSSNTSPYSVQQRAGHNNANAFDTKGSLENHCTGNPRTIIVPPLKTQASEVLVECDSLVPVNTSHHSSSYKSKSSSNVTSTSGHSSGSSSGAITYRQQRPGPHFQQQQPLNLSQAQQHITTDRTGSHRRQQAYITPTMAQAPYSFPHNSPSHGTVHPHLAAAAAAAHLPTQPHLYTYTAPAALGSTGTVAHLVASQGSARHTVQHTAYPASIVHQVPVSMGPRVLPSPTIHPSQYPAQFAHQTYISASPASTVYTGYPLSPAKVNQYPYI
T7 sequence (P11309 whole entry): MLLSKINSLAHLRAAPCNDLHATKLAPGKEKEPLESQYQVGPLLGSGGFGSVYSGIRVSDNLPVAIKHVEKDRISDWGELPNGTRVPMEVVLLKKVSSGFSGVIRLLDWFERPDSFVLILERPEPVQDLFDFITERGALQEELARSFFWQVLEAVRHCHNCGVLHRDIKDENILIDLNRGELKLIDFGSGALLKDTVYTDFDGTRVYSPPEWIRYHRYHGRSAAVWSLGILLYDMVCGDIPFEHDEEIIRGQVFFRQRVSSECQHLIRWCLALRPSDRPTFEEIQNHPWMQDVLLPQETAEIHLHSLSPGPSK
T2 sequence (P08069 31-1367): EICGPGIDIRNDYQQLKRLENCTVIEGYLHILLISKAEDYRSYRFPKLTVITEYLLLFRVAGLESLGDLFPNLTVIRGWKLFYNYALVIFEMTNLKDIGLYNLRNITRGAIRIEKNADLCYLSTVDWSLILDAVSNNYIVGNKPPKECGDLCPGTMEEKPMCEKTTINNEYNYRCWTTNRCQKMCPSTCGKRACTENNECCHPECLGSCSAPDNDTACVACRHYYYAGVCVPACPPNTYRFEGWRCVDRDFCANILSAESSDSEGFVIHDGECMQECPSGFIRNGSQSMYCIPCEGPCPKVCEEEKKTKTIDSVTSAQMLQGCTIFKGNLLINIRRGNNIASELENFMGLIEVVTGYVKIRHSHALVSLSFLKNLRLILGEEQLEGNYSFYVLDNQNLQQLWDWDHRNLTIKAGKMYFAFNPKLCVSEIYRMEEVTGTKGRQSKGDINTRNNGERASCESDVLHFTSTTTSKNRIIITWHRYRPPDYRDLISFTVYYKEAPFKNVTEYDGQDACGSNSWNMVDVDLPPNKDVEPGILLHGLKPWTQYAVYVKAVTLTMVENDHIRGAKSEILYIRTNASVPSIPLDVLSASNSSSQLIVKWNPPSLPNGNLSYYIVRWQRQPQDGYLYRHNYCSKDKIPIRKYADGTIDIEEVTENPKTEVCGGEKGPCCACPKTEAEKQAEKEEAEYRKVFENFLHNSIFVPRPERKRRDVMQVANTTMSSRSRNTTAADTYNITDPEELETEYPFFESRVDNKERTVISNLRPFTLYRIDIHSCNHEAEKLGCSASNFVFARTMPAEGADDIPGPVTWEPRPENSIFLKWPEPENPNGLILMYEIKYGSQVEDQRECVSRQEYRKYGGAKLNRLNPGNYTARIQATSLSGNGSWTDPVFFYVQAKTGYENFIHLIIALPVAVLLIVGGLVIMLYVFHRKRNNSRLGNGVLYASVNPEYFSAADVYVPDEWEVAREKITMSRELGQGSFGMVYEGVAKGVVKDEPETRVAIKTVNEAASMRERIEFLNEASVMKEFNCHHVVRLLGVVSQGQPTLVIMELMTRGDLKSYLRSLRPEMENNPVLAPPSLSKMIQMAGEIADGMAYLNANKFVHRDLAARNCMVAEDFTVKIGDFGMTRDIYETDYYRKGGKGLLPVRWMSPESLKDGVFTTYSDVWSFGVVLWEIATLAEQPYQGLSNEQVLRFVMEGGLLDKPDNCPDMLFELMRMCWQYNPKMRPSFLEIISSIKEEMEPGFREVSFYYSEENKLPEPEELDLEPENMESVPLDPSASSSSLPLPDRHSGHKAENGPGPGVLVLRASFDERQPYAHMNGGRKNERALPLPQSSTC

Turning to `O=C1Nc2ccc(I)cc2/C1=C/c1cc(Br)c(O)c(Br)c1` [GW5074], the remaining activity at 1 µM at MARK4 was determined as 50%; at IGF-1R it was 88%; on BRSK2, 75%; at HIPK1, 84%; on HIPK2 it was 134%; at ABL, 58%. For the same molecule, the results for the remaining activity at 1 µM at PIM1 and at ZAP70 were 76% and 98%, respectively.
As to `Nc1ncc(C(=O)NC2CN(C(=O)C3CC3)C2)c2ccc(-c3cccc(F)c3)nc12` [GNE-495], the residual activity at MARK4 (1 μM) is reported as 51%; at IGF-1R (1 μM), 85%; on BRSK2 (1 μM), 77%; at HIPK1 (1 μM) it was 97%; on HIPK2 (1 μM) it was 96%; on ABL (1 μM), 68%. Also, the figures for the residual activity at PIM1 (1 μM) and at ZAP70 (1 μM) were 103% and 109%, respectively.
For `Oc1ncnc2c1c(-c1ccccc1)cn2-c1ccccc1` [F1386-0303, 5,7-diphenyl-7H-pyrrolo[2,3-d]pyrimidin-4-ol], the remaining activity at 1 µM came out at 96% on MARK4; 108% at IGF-1R; 91% on BRSK2; 54% at HIPK1; 87% on HIPK2; 94% on ABL. Also, the remaining activity at 1 µM is 122% on PIM1 and 114% at ZAP70.
For the molecule `COCCOc1ccc(-c2cn(-c3ccccc3)c3nc[nH]c(=O)c23)cc1` [DMX-5804, 5-[4-(2-methoxy-ethoxy)-phenyl]-7-phenyl-3,7-dihydro-pyrrolo[2,3-d]pyrimidin-4-one], the remaining activity at 1 µM at MARK4 is 99%; on IGF-1R, 112%; at BRSK2, 92%; at HIPK1, 109%; at HIPK2, 102%; on ABL, 79%. Besides, the remaining activity at 1 µM on PIM1 worked out at 98%; on ZAP70 it was 94%.
For `O=C1Cc2c([nH]c3ccc(Br)cc23)-c2ccccc2N1` [Kenpaullone], the remaining activity at 1 µM on MARK4 was 39%; on IGF-1R, 74%; on BRSK2, 35%; at HIPK1 it was 102%; at HIPK2, 103%; on ABL, 40%. Moreover, the remaining activity at 1 µM is 90% at PIM1 and 59% on ZAP70.

These data come from publication PMC6458995, “MAP4K4 Inhibition Promotes Survival of Human Stem Cell-Derived Cardiomyocytes and Reduces Infarct Size In Vivo” (Cell Stem Cell, 2019).
